From US20260365641A1, “Aromatic Acetylene Derivative, Preparation Method Therefor, And Use Thereof” (Zhejiang Hisun Pharmaceutical Co., Ltd., priority 2022, published 2026)
≈ marks a conversion by molar mass, not a printed value.

Each molecule was assayed on E. coli ATCC 25922 (assay: Antibacterial activity, minimum inhibitory concentration (MIC) in vitro, broth dilution). Conditions: Escherichia coli, ATCC25922, 5×10^5 cfu/mL, 35 °C, 18-24 hours.
Type: cell-based
Experimental: (§1) The minimum inhibitory concentration (MIC) in vitro was determined according to CLSI's guidelines, and a minimal broth dilution method was used.
(§2) The test process was briefly described as follows: the tested compound was dissolved in DMSO to prepare a storage solution of […], and then prepared into 11 two-fold-diluted 100× high-concentration working liquids (a final concentration of the system was 64 μg/mL to 0.06 μg/mL) by DMSO. Stains (K. pneumoniae ATCC13883, K. pneumoniae ATCC51504 and E. coli ATCC 25922) frozen at −80 °C with glycerin were inoculated to a solid agar culture medium, placed into an incubator for culturing for 18-24 hours at 35 °C to finish the preparation work of the strains. A proper amount of solid plate culture was collected, re-suspended in normal saline, and uniformly mixed. The turbidity of the bacterial suspension was adjusted to a proper turbidity by a turbidity meter, containing about 1×10^8 cfu/mL of bacteria. Then, the turbidity-regulated bacterial suspension was diluted with a test culture medium (type: CAMHIIB, purchased from BD company) to a bacterial concentration of 5×10^5 cfu/mL, thus finishing the preparation of an inoculation solution. 198 μL of the inoculation solution was inoculated into a 96-well plate, and added with 2 μL 100× high concentration working liquid of the compound, then the 96-well plate was placed at 35 °C for culturing for 18-24 hours.

Compound	MIC [µg/mL]
C[C@H](O)c1nccn1Cc1cc(-c2ccc(C#CC3=CCN(C(=O)C4[C@H]5CCC[C@@H]45)CC3)cc2)on1 (stereo partly drawn) [Example 35, ((1R,5S)-bicyclo[3.1.0]hexan-6-yl)(4-((4-(3-((2-((S)-1-hydroxyethyl)-1H-imidazol-1-yl)methyl)isoxazol-5-yl)phenyl)ethynyl)-3,6-dihydropyridin-1(2H)-yl)methanone]	2 (≈ 4.14 µM)
C[C@H](O)c1nccn1Cc1cc(-c2ccc(C#CC3=CCN(C(=O)Cn4cncn4)CC3)cc2)on1 [Example 37, (S)-1-(4-((4-(3-((2-(1-hydroxyethyl)-1H-imidazol-1-yl)methyl)isoxazol-5-yl)phenyl)ethynyl)-3,6-dihydropyridin-1(2H)-yl)-2-(1H-1,2,4-triazol-1-yl)ethan-1-one]	2 (≈ 4.14 µM)

These molecules were tested on K. pneumoniae ATCC51504 in the same assay as above. Conditions: Klebsiella pneumoniae, 5×10^5 cfu/mL, 35 °C, 18-24 hours.
Type: cell-based
Experimental: as §1, §2

Compound	MIC [µg/mL]
C[C@H](O)c1nccn1Cc1cc(-c2ccc(C#CC3=CCN(C(=O)C4[C@H]5CCC[C@@H]45)CC3)cc2)on1 (stereo partly drawn) [Example 35, ((1R,5S)-bicyclo[3.1.0]hexan-6-yl)(4-((4-(3-((2-((S)-1-hydroxyethyl)-1H-imidazol-1-yl)methyl)isoxazol-5-yl)phenyl)ethynyl)-3,6-dihydropyridin-1(2H)-yl)methanone]	2 (≈ 4.14 µM)
C[C@H](O)c1nccn1Cc1cc(-c2ccc(C#CC3=CCN(C(=O)Cn4cncn4)CC3)cc2)on1 [Example 37, (S)-1-(4-((4-(3-((2-(1-hydroxyethyl)-1H-imidazol-1-yl)methyl)isoxazol-5-yl)phenyl)ethynyl)-3,6-dihydropyridin-1(2H)-yl)-2-(1H-1,2,4-triazol-1-yl)ethan-1-one]	2 (≈ 4.14 µM)

The molecules below were run against T1, recombinant Pseudomonas aeruginosa LpxC (Pseudomonas aeruginosa, UniProt P47205) (assay: Inhibition of enzymatic activity of recombinant Pseudomonas aeruginosa LpxC in vitro). Conditions: 5 nM LpxC; substrate UDP-3-O—(R-3-hydroxydecanoyl)-GlcNAc; 25 °C, 120 minutes; fluorescamine readout.
T1 construct: purchased Signalway Antibody AP74647-2
T1 sequence (P47205 1-303): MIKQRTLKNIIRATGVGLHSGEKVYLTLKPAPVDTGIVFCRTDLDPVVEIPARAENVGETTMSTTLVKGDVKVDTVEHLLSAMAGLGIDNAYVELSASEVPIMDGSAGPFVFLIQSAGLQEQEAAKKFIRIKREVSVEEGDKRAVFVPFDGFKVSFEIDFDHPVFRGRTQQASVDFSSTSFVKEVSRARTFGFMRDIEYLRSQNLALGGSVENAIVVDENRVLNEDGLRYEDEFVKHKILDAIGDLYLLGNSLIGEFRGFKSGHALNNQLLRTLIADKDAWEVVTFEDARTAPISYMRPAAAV
Type: biochemical
Experimental: The following method was used to determine degrees of inhibition of the compounds of the present invention on the enzymatic activity of recombinant Pseudomonas aeruginosa LpxC in vitro.
The test process was briefly described as follows: the tested compound was first dissolved in DMSO to prepare a 10 mM storage solution. The reaction was carried out in a 96-well microplate. Firstly, 20 μL of recombinant Pseudomonas aeruginosa LpxC (purchased from Signalway Antibody, article number AP74647-2) was added into the wells, and the final concentrations were 5 nM respectively. 5 μL of the compound to be tested was added, diluted in 4-fold, with 8 concentration points, and the concentration range was 0.61-10000 nM. 5 μL of LpxC substrate UDP-3-O—(R-3-hydroxydecanoyl)-GlcNAc (purchased from Biosynth Carbosynth, article number mu75071) was added, wherein a final concentration of the substrate was […], and the substrate was incubated at 25 °C for 120 minutes. Subsequently, 20 μL of 2.0 mg/mL fluorescamine (purchased from sigma aldrich, article number F9015, wherein a solvent was dimethylformamide/acetonitrile (1:1)) was added to the reaction system, mixed evenly and reacted for 10 minutes. Finally, 50 μL of 200 mM sodium phosphate buffer solution (pH 8.0) was added to stop the reaction, and a microplate reader (BMG) was used for reading. An excitation wavelength and an emission wavelength were 390 nm and 495 nm respectively. Compared with the fluorescence intensity ratio of a control group (0.1% DMSO), the percentage inhibition rates of the compounds at each concentration were calculated, and the IC50 values of the compounds were obtained by performing nonlinear regression analysis with logarithmic value of the compound concentration-inhibition rate by GraphPad Prism 5 software, which can be seen in Table 1.

Compound	IC50 [nM]
C[C@H](O)c1nccn1Cc1cc(-c2ccc(C#CC3CC4(CCNCC4)C3)cc2)on1 [Example 1, (S)-1-(1-((5-(4-((7-azaspiro[3.5]nonan-2-yl)ethynyl)phenyl)isoxazol-3-yl)methyl)-1H-imidazol-2-yl)ethan-1-ol]	9.46
C[C@H](O)c1nccn1Cc1cc(-c2ccc(C#CC3CC4(CCN(CCCC(=O)O)C4)C3)cc2)on1 (stereo partly drawn) [Example 4, (S)-4-(2-((4-(3-((2-(1-hydroxyethyl)-1H-imidazol-1-yl)methyl)isoxazol-5-yl)phenyl)ethynyl)-6-azaspiro[3.4]octan-6-yl)butanoic acid]	23.4
C[C@H](O)c1nccn1Cc1cc(-c2ccc(C#CC3CC4(CCN(CCC(=O)O)CC4)C3)cc2)on1 [Example 5, (S)-3-(2-((4-(3-((2-(1-hydroxyethyl)-1H-imidazol-1-yl)methyl)isoxazol-5-yl)phenyl)ethynyl)-7-azaspiro[3.5]nonan-7-yl)propanoic acid]	7.03
C[C@H](O)c1nccn1Cc1cc(-c2ccc(C#CC3CC4(CCN(CCCC(N)=O)CC4)C3)cc2)on1 [Example 8, (S)-4-(2-((4-(3-((2-(1-hydroxyethyl)-1H-imidazol-1-yl)methyl)isoxazol-5-yl)phenyl)ethynyl)-7-azaspiro[3.5]nonan-7-yl)butanamide]	19.3
C[C@H](O)c1nccn1Cc1cc(-c2ccc(C#CC3CC4(CCN(CCC(N)=O)CC4)C3)cc2)on1 [Example 9, (S)-3-(2-((4-(3-((2-(1-hydroxyethyl)-1H-imidazol-1-yl)methyl)isoxazol-5-yl)phenyl)ethynyl)-7-azaspiro[3.5]nonan-7-yl)propanamide]	18.8
C[C@H](O)c1nccn1Cc1cc(-c2ccc(C#CC3CC4(CCN(CC(=O)O)CC4)C3)cc2)on1 [Example 10, (S)-2-(2-((4-(3-((2-(1-hydroxyethyl)-1H-imidazol-1-yl)methyl)isoxazol-5-yl)phenyl)ethynyl)-7-azaspiro[3.5]nonan-7-yl)acetic acid]	22.8
C[C@H](O)c1nccn1Cc1cc(-c2ccc(C#CC3CC4(CCN(CCO)CC4)C3)cc2)on1 [Example 11, (S)-2-(2-((4-(3-((2-(1-hydroxyethyl)-1H-imidazol-1-yl)methyl)isoxazol-5-yl)phenyl)ethynyl)-7-azaspiro[3.5]nonan-7-yl)ethan-1-ol]	8.66
C[C@H](O)c1nccn1Cc1cc(-c2ccc(C#CC3CC4(CCN(C(=O)CC(=O)O)CC4)C3)cc2)on1 [Example 14, (S)-3-(2-((4-(3-((2-(1-hydroxyethyl)-1H-imidazol-1-yl)methyl)isoxazol-5-yl)phenyl)ethynyl)-7-azaspiro[3.5]nonan-7-yl)-3-oxopropanoic acid]	6.81
C[C@H](O)c1nccn1Cc1cc(-c2ccc(C#CC3CC4(CCN(C(=O)CC(N)=O)CC4)C3)cc2)on1 [Example 15, (S)-3-(2-((4-(3-((2-(1-hydroxyethyl)-1H-imidazol-1-yl)methyl)isoxazol-5-yl)phenyl)ethynyl)-7-azaspiro[3.5]nonan-7-yl)-3-oxopropanamide]	4.42
C[C@H](O)c1nccn1Cc1cc(-c2ccc(C#CC3CC4(CCN(C(=O)CN)CC4)C3)cc2)on1 [Example 16, (S)-2-amino-1-(2-((4-(3-((2-(1-hydroxyethyl)-1H-imidazol-1-yl)methyl)isoxazol-5-yl)phenyl)ethynyl)-7-azaspiro[3.5]nonan-7-yl)ethan-1-one]	10.3
C[C@H](O)c1nccn1Cc1cc(-c2ccc(C#CC3CC4(CCN(C(=O)[C@@H](N)CO)CC4)C3)cc2)on1 [Example 18, (S)-2-amino-3-hydroxy-1-(2-((4-(3-((2-((S)-1-hydroxyethyl)-1H-imidazol-1-yl)methyl)isoxazol-5-yl)phenyl)ethynyl)-7-azaspiro[3.5]nonan-7-yl)propan-1-one]	4.42
C[C@H](O)c1nccn1Cc1cc(-c2ccc(C#CC3CC4(CCN(C(N)=O)C4)C3)cc2)on1 (stereo partly drawn) [Example 24, (S)-2-((4-(3-((2-(1-hydroxyethyl)-1H-imidazol-1-yl)methyl)isoxazol-5-yl)phenyl)ethynyl)-6-azaspiro[3.4]octane-6-carboxamide]	6.9
C[C@H](O)c1nccn1Cc1cc(-c2ccc(C#CC3CC4(CCN(C(=O)CO)C4)C3)cc2)on1 (stereo partly drawn) [Example 28, (S)-2-hydroxy-1-(2-((4-(3-((2-(1-hydroxyethyl)-1H-imidazol-1-yl)methyl)isoxazol-5-yl)phenyl)ethynyl)-6-azaspiro[3.4]octan-6-yl)ethan-1-one]	14.1
C[C@H](O)c1nccn1Cc1cc(-c2ccc(C#CC3CC4(CCN(C5CNC5)CC4)C3)cc2)on1 [Example 30, (S)-1-(1-((5-(4-((7-(azetidin-3-yl)-7-azaspiro[3.5]nonan-2-yl)ethynyl)phenyl)isoxazol-3-yl)methyl)-1H-imidazol-2-yl)ethan-1-ol]	16.2
C[C@H](O)c1nccn1Cc1cc(-c2ccc(C#CC3CC4(C3)CN(C(=O)CC#N)C4)cc2)on1 [Example 32, (S)-3-(6-((4-(3-((2-(1-hydroxyethyl)-1H-imidazol-1-yl)methyl)isoxazol-5-yl)phenyl)ethynyl)-2-azaspiro[3.3]heptan-2-yl)-3-oxopropanenitrile]	22.5
C[C@H](O)c1nccn1Cc1cc(-c2ccc(C#CC3CC4(C3)CN(Cc3ncc[nH]3)C4)cc2)on1 [Example 46, (S)-1-(1-((5-(4-((2-((1H-imidazol-2-yl)methyl)-2-azaspiro[3.3]heptan-6-yl)ethynyl)phenyl)isoxazol-3-yl)methyl)-1H-imidazol-2-yl)ethan-1-ol]	21.5
C[C@H](O)c1nccn1Cc1cc(-c2ccc(C#CC3CC4(C3)CN(C(=O)NCCO)C4)cc2)on1 [Example 50, (S)-N-(2-hydroxyethyl)-6-((4-(3-((2-(1-hydroxyethyl)-1H-imidazol-1-yl)methyl)isoxazol-5-yl)phenyl)ethynyl)-2-azaspiro[3.3]heptane-2-carboxamide]	23.5
C[C@H](O)c1nccn1Cc1cc(-c2ccc(C#CC3CC4(C3)CN(C(=O)N3CCC(O)CC3)C4)cc2)on1 [Example 51, (S)-(6-((4-(3-((2-(1-hydroxyethyl)-1H-imidazol-1-yl)methyl)isoxazol-5-yl)phenyl)ethynyl)-2-azaspiro[3.3]heptan-2-yl)(4-hydroxypiperidin-1-yl)methanone]	15.1
C[C@H](O)c1nccn1Cc1cc(-c2ccc(C#CC3CC4(C3)CN(C(=O)C3CCNC(=O)C3)C4)cc2)on1 (stereo partly drawn) [Example 54, 4-(6-((4-(3-((2-((S)-1-hydroxyethyl)-1H-imidazol-1-yl)methyl)isoxazol-5-yl)phenyl)ethynyl)-2-azaspiro[3.3]heptane-2-carbonyl)piperidin-2-one]	15.5
